# Test results as given in US20060167106A1, “Compounds acting at the centrosome” (priority 2004, published 2006).
# “Also recorded” adds a separate entry of the source.
# Experiments:
# [1] = system: MCF-7 cells; assay: α-tubulin-YFP localization in MCF-7 cells; assay type: cell-based; conditions: 40 hours after treatment with 500 nM for 25 hours
# Description: MDA-435, MCF-7, CV-1, HT-29 and MCF-10A cell lines were maintained with 10% FBS-containing DMEM media. […] Living cells were examined using a fluorescent microscope for α-tubulin-YFP expression. Cells in single colonies that had microtubules labeled with tubulin-YFP were lifted and expanded using G418-containing media.
# [2] = system: CV-1 cells; assay: α-tubulin immunofluorescence, microtubule network in CV-1 cells; assay type: cell-based, monkey; conditions: 0.5 μM, 5 hours
# Method: Before treatment, cells were grown in chamber slides for 24 hours in culture media containing 90% Eagle's MEM and 10% BCS. […] Cells were then washed in PBS and fixed in ice-cold 50/50 methanol/acetone for 10 minutes. […] Sigma, St. Louis, Mo.). Subsequently, slides were washed in PBS, incubated with an AlexaFluoR488-conjugated anti-mouse antibody (Molecular Probes, Eugene, Oreg.) at 37° C. for 30 minutes.
smiles,measurement,setting,value
CN(NC(=O)CC(=O)NN(C)C(=S)c1ccccc1)C(=S)c1ccccc1 [Compound 1],accumulation of α-tubulin-YFP at centrosome-like structures,[1],accumulation of α-tubulin-YFP at centrosome-like structures
same,organization of the microtubule network,[2],"dramatic alterations in the cells' microtubule network; also recorded: loss of centrosomal enucleated microtubules, clearing up of microtubules from the cytosol, and coiling up of microtubules around the nucleus and at the cell periphery; also recorded: disruption of the microtubule network"
